Laboratory results from article PMC6058673, “Comparison of hyaluronic acid-based micelles and polyethylene glycol-based micelles on reversal of multidrug resistance and enhanced anticancer efficacy in vitro and in vivo” (Drug Delivery, 2018).
Where “and” joins values, the source holds several entries; their conditions need not be identical. Identical values can stand only once.

Experiments:
MCF-7/Adr cells = test: MTT cytotoxicity assay and MDR reversal in multidrug-resistant MCF-7/Adr cells; format: cell-based; settings: for resistant index (RI): MCF-7/Adr vs MCF-7; for IC50: Homo sapiens, NCI/ADR-RES, MCF-7/Adr, DOX concentration
Description: The sensitive MCF-7 and multidrug-resistant MCF-7/Adr cells were obtained from Nanjing Kaiji Biotech. Ltd. Co. (Jiangsu, China). Cells were cultured in RPMI-1640 medium containing 10% (v/v) FBS and 1% penicillin–streptomycin at 37 °C with 5% CO2. Additionally, MCF-7/Adr cells were incubated in medium with 1 μg/mL DOX.
The cytotoxicity of various formulations against MCF-7 and MCF-7/Adr cells was assessed by MTT assay. Briefly, MCF-7 and MCF-7/Adr cells were seeded in 96-well plates at a density of 5 × 10^4 cells/well/0.1 mL 1640 culture medium and cultured for 24 h. Then, the cells were treated with DOX-Sol, DOX + Cur, HA-PMs, TPGS2k-PMs and HA/TPGS2k-PMs with multiple concentrations of DOX for 48 and 72 h, respectively. The cells incubated with medium only were utilized as control. At time interval, 20 μL MTT (5 mg/mL) was added and incubated for another 4 h. After that, the medium of each well was discarded and added 200 μL DMSO. The absorbance of each well was measured at 570 nm using a microplate reader. Half-maximal inhibitory concentration (IC50), the resistant index (RI) and reversal factor (RF) were calculated and used to evaluate MDR reversal effects by micelles(Ling et al., [2010]; Wang et al., [2012]).

[1] = In vivo pharmacokinetics after intravenous injection; settings: rat, i.v., DOX 5 mg/kg and Cur 5 mg/kg, analyte DOX
Description: Male Sprague–Dawley rats were randomly assigned to five groups (five rats per group). DOX-Sol, DOX + Cur, TPGS2k-PMs, HA-PMs and HA/TPGS2k-PMs were injected intravenously with at the dose of 5 mg/kg DOX and 5 mg/kg Cur, respectively. About 300 μL of blood samples were collected from the orbital venous plexus and immediately centrifuged to obtain the plasma fraction. Plasma samples were extracted through methanol protein precipitation method before analyzed by LC–MS/MS system.

4T1-bearing Balb/C mice = test: In vivo biodistribution in tumor-bearing mice; settings: 4T1-bearing mice, 2 h after i.v. 10 mg DOX/kg and 10 mg Cur/kg
Description: After 2 h administration, the mice were sacrificed, and the tumor, heart, liver, lung, and kidney were excised, weighed, homogenized in 0.5 mL methanol, centrifuged and analyzed by LC-MS/MS. Meanwhile, for qualitative analysis, the tumors were frozen in cryoembedding media (OCT) and sectioned at 20 μm. The sections were fixed with 4% paraformaldehyde for 10 min, stained for nuclei with DAPI, and observed by CLSM.

4T1 tumor-bearing mice [2] = test: In vivo antitumor efficacy, body weight and survival; design: species or system BALB/c mice; settings: 4T1-bearing mice, i.v. 10 mg/kg DOX
Description: The antitumor efficacy and safety in vivo were evaluated using 4T1 tumor-bearing mice. Briefly, 1 × 10^6 4T1 cells were subcutaneously injected into the right axilla of the female BALB/c mice. […] Body weights and tumor volumes (V = ab^2/2, where a was major axis and b was minor axis measured by slide caliper) were measured every two days after administration. At the end of the experiment, mice were sacrificed, and then the tumors were excised, weighted and photographed.

4T1 tumor-bearing mice [3] = test: Serum CK, CKMB, LDH and AST (organ toxicity) by ELISA kit; format: in vivo, BALB/c mice; settings: 4T1-bearing mice, end of experiment; DOX-Sol vs saline, others vs DOX-Sol
Description: The toxicity of DOX formulations in vivo were evaluated by enzyme-linked immunosorbent assay (ELISA) kit. At the end of the experiment, the blood of each mouse was extracted by eyeballs and the serum was separated. Then, the activities of creatine kinase (CK), creatine kinase MB (CKMB), lactate dehydrogenase (LDH) and aspartate transaminase (AST) in serum were evaluated to investigate the organ toxicity.

With `COc1cccc2c1C(=O)c1c(O)c3c(c(O)c1C2=O)C[C@@](O)(C(=O)CO)C[C@@H]3O[C@H]1C[C@H](N)[C@H](O)[C@H](C)O1` [DOX-Sol, Doxorubicin] the “resistant index (RI)” value (MCF-7/Adr cells; 48h, listed as DOX) was 142 and 142.01, the “resistant index (RI)” value (MCF-7/Adr cells; 72h) was 89.82 and the IC50 (MCF-7/Adr cells; 48h) was 106 µg/mL. The IC50 (MCF-7/Adr cells; 72h) was 45.8 µg/mL, the “V of DOX” value [1] was 0.03 ± 0.02 L/kg and the “DOX accumulation in tumor” value (4T1-bearing Balb/C mice) was “low DOX accumulation”. For the same compound, the “death of mice during treatment” value (4T1 tumor-bearing mice [2]; 10 mice per group) was “five mice suddenly died after nine days treatment”, the body weight change (4T1 tumor-bearing mice [2]) was “markedly decreased” and the “values of CKMB, CK, LDH and AST in serum” value (4T1 tumor-bearing mice [3]) was “significantly higher than those in saline-treated groups”.
